Patent publication US12371454B2, “Cyclic peptide compound having Kras inhibitory action” (priority 2019, dated 2025)
Starred links: 1 amine or outer side, 2 acyl side, 3 side chain; linkers in the order of their positions; H or OH if unused. Positions of bridges follow the written chain, without caps; N, C: chain ends. Non-standard residues stand in square brackets, D forms with d. Residues, ends and D or L forms follow the SMILES beside them. *: point of attachment. hPhe(3-Cl-4-CF3) = N[C@@H](CCc1ccc(C(F)(F)F)c(Cl)c1)C(=O)O; hPhe(3-F,4-CF3) = N[C@@H](CCc1ccc(C(F)(F)F)c(F)c1)C(=O)O; X69 = O=C([C@@H]1C[C@H](n2ccnn2)CN1[*:1])[*:2]; NMeAla(cPent) = CN[C@@H](CC1CCCC1)C(=O)O; mXylylene = c1cc(C[*:1])cc(C[*:2])c1; NMeCha = CN[C@@H](CC1CCCCC1)C(=O)O; cisHyp = O=C(O)[C@@H]1C[C@H](O)CN1; Hyp = O=C(O)[C@@H]1C[C@@H](O)CN1; NMeChg = CN[C@H](C(=O)O)C1CCCCC1; NMeD = CN[C@@H](CC(=O)O)C(=O)O; NMeL = CN[C@@H](CC(C)C)C(=O)O; NMeV = CN[C@H](C(=O)O)C(C)C; Piperidide = C1CCN(*)CC1; X45 = FC(F)Oc1ccc(C*)cc1; Ac5c = NC1(C(=O)O)CCCC1; Ethyl(2,2-F2) = FC(F)C*; Ethyl(2-OH) = OCC*; X24 = c1cncc(C*)c1; X36 = c1cc(C*)cs1; Sar = CNCC(=O)O

System: Human pancreatic cancer cell line AsPC-1
Assay: Measurement of AsPC-1 cell growth inhibition (AsPC-1 CGI)
Assay type: cell-based
Details: 96 h
Summary of the method: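 AsPC-1 cells in 15% FBS RPMI-1640 were exposed to test compound for 96 hours at 37° C, with CellTiter-Glo as endpoint.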

First: CC[C@H](C)[C@@H]1NC(=O)[C@H](CC(C)C)N(C)C(=O)C[C@@H](C(=O)N2CCCCC2)N(C)C(=O)[C@H](C(C)C)N(C)C(=O)C2(CCCC2)NC(=O)[C@@H]2C[C@H](n3ccnn3)CN2C(=O)[C@H](CCc2ccc(C(F)(F)F)c(Cl)c2)NC(=O)CN(C)C(=O)[C@H](CC2CCCC2)N(C)C(=O)CN(C)C(=O)CN(C)C1=O [Compound 2115, (3S,9S,18S,21S,25S,28S,34S,36S)-3-[2-[3-chloro-4-(trifluoromethyl)phenyl]ethyl]-9-(cyclopentylmethyl)-21-isobutyl-28-isopropyl-7,10,13,16,22,26,29-heptamethyl-18-[(1S)-1-methylpropyl]-25-(piperidine-1-carbonyl)-36-(triazol-1-yl)spiro[1,4,7,10,13,16,19,22,26,29,32-undecazabicyclo[32.3.0]heptatriacontane-31,1′-cyclopentane]-2,5,8,11,14,17,20,23,27,30,33-undecone] ([NMeL]I[Sar][Sar][NMeAla(cPent)][Sar][hPhe(3-Cl-4-CF3)][X69][Ac5c][NMeV][NMeD]-Piperidide; lactam N-11)
Second: CC[C@H](C)[C@@H]1NC(=O)[C@H](CC(C)C)N(C)C(=O)C[C@@H](C(=O)N2CCCCC2)N(C)C(=O)[C@H](C2CCCCC2)N(C)C(=O)C2(CCCC2)NC(=O)[C@@H]2C[C@@H](OCC(F)F)CN2C(=O)[C@H](CCc2ccc(C(F)(F)F)c(Cl)c2)NC(=O)CN(C)C(=O)[C@H](CC2CCCCC2)N(C)C(=O)CN(C)C(=O)CN(C)C1=O [Compound 2119] ([NMeL]I[Sar][Sar][NMeCha][Sar][hPhe(3-Cl-4-CF3)][Hyp](Ethyl(2,2-F2))[Ac5c][NMeChg][NMeD]-Piperidide; lactam N-11)
The IC50 of the first is higher: greater than 500 nM for the first, 20 to 50 nM for the second. The second is the more potent here.

First: CC[C@H](C)[C@@H]1NC(=O)[C@H](CC(C)C)N(C)C(=O)C[C@@H](C(=O)N2CCCCC2)N(C)C(=O)[C@H](C2CCCCC2)N(C)C(=O)C2(CCCC2)NC(=O)[C@@H]2C[C@H](OCCO)CN2C(=O)[C@H](CCc2ccc(C(F)(F)F)c(Cl)c2)NC(=O)CN(C)C(=O)[C@H](CC2CCCCC2)N(C)C(=O)CN(C)C(=O)CN(C)C1=O [Compound 2117, (3S,9S,18S,21S,25S,28S,34S,36S)-3-[2-[3-chloro-4-(trifluoromethyl)phenyl]ethyl]-28-cyclohexyl-9-(cyclohexylmethyl)-36-(2-hydroxyethoxy)-21-isobutyl-7,10,13,16,22,26,29-heptamethyl-18-[(1S)-1-methylpropyl]-25-(piperidine-1-carbonyl)spiro[1,4,7,10,13,16,19,22,26,29,32-undecazabicyclo[32.3.0]heptatriacontane-31,1′-cyclopentane]-2,5,8,11,14,17,20,23,27,30,33-undecone] ([NMeL]I[Sar][Sar][NMeCha][Sar][hPhe(3-Cl-4-CF3)][cisHyp](Ethyl(2-OH))[Ac5c][NMeChg][NMeD]-Piperidide; lactam N-11)
Second: CC[C@H](C)[C@@H]1NC(=O)[C@H](CC(C)C)N(C)C(=O)C[C@@H](C(=O)N2CCCCC2)N(C)C(=O)[C@H](C2CCCCC2)N(C)C(=O)C2(CCCC2)NC(=O)[C@@H]2C[C@@H](OCCO)CN2C(=O)[C@H](CCc2ccc(C(F)(F)F)c(Cl)c2)NC(=O)CN(C)C(=O)[C@H](CC2CCCCC2)N(C)C(=O)CN(C)C(=O)CN(C)C1=O [Compound 2122, (3S,9S,18S,21S,25S,28S,34S,36R)-3-[2-[3-chloro-4-(trifluoromethyl)phenyl]ethyl]-28-cyclohexyl-9-(cyclohexylmethyl)-36-(2-hydroxyethoxy)-21-isobutyl-7,10,13,16,22,26,29-heptamethyl-18-[(1S)-1-methylpropyl]-25-(piperidine-1-carbonyl)spiro[1,4,7,10,13,16,19,22,26,29,32-undecazabicyclo[32.3.0]heptatriacontane-31,1′-cyclopentane]-2,5,8,11,14,17,20,23,27,30,33-undecone] ([NMeL]I[Sar][Sar][NMeCha][Sar][hPhe(3-Cl-4-CF3)][Hyp](Ethyl(2-OH))[Ac5c][NMeChg][NMeD]-Piperidide; lactam N-11)
The IC50 of the first is higher: 100 to 500 nM for the first, 50 to 100 nM for the second.

First: CC[C@H](C)[C@@H]1NC(=O)[C@H](CC(C)C)N(C)C(=O)C[C@@H](C(=O)N2CCCCC2)N(C)C(=O)[C@H](C2CCCCC2)N(C)C(=O)C2(CCCC2)NC(=O)[C@@H]2C[C@H](OCc3cccnc3)CN2C(=O)[C@H](CCc2ccc(C(F)(F)F)c(Cl)c2)NC(=O)CN(C)C(=O)[C@H](CC2CCCCC2)N(C)C(=O)CN(C)C(=O)CN(C)C1=O [Compound 2120] ([NMeL]I[Sar][Sar][NMeCha][Sar][hPhe(3-Cl-4-CF3)][cisHyp](X24)[Ac5c][NMeChg][NMeD]-Piperidide; lactam N-11)
Second: CC[C@H](C)[C@@H]1NC(=O)[C@H](CC(C)C)N(C)C(=O)C[C@@H](C(=O)N2CCCCC2)N(C)C(=O)[C@H](C2CCCCC2)N(C)C(=O)C2(CCCC2)NC(=O)[C@@H]2C[C@@H](OCc3cccnc3)CN2C(=O)[C@H](CCc2ccc(C(F)(F)F)c(Cl)c2)NC(=O)CN(C)C(=O)[C@H](CC2CCCCC2)N(C)C(=O)CN(C)C(=O)CN(C)C1=O [Compound 2121] ([NMeL]I[Sar][Sar][NMeCha][Sar][hPhe(3-Cl-4-CF3)][Hyp](X24)[Ac5c][NMeChg][NMeD]-Piperidide; lactam N-11)
The IC50 of the first is higher: 100 to 500 nM for the first, 50 to 100 nM for the second. The second is the more potent here.

`CC[C@H](C)[C@@H]1NC(=O)[C@H](CC(C)C)N(C)C(=O)C[C@@H](C(=O)N2CCCCC2)N(C)C(=O)[C@H](C2CCCCC2)N(C)C(=O)C2(CCCC2)NC(=O)[C@@H]2C[C@H](OCC(F)F)CN2C(=O)[C@H](CCc2ccc(C(F)(F)F)c(Cl)c2)NC(=O)CN(C)C(=O)[C@H](CC2CCCCC2)N(C)C(=O)CN(C)C(=O)CN(C)C1=O` [Compound 2123] ([NMeL]I[Sar][Sar][NMeCha][Sar][hPhe(3-Cl-4-CF3)][cisHyp](Ethyl(2,2-F2))[Ac5c][NMeChg][NMeD]-Piperidide; lactam N-11) and `CC[C@H](C)[C@@H]1NC(=O)[C@H](CC(C)C)N(C)C(=O)C[C@@H](C(=O)N2CCCCC2)N(C)C(=O)[C@H](C2CCCCC2)N(C)C(=O)C2(CCCC2)NC(=O)[C@@H]2C[C@@H](OCc3ccsc3)CN2C(=O)[C@H](CCc2ccc(C(F)(F)F)c(Cl)c2)NC(=O)CN(C)C(=O)[C@H](CC2CCCCC2)N(C)C(=O)CN(C)C(=O)CN(C)C1=O` [Compound 2124] ([NMeL]I[Sar][Sar][NMeCha][Sar][hPhe(3-Cl-4-CF3)][Hyp](X36)[Ac5c][NMeChg][NMeD]-Piperidide; lactam N-11) fall in the same range of IC50: 100 to 500 nM for the first, 100 to 500 nM for the second.

`CC[C@H](C)[C@@H]1NC(=O)[C@H](CC(C)C)N(C)C(=O)C[C@@H](C(=O)N2CCCCC2)N(C)C(=O)[C@H](CC(C)C)N(C)C(=O)C2(CCCC2)NC(=O)[C@@H]2C[C@@H](OCc3cccc(C)c3)CN2C(=O)[C@H](CCc2ccc(C(F)(F)F)c(F)c2)NC(=O)CN(C)C(=O)[C@H](CC2CCCCC2)N(C)C(=O)CN(C)C(=O)CN(C)C1=O` [Compound 2125] ([NMeL]I[Sar][Sar][NMeCha][Sar][hPhe(3-F,4-CF3)][Hyp](mXylylene)[Ac5c][NMeL][NMeD]-Piperidide; lactam N-11) and `CC[C@H](C)[C@@H]1NC(=O)[C@H](CC(C)C)N(C)C(=O)C[C@@H](C(=O)N2CCCCC2)N(C)C(=O)[C@H](CC(C)C)N(C)C(=O)C2(CCCC2)NC(=O)[C@@H]2C[C@@H](OCc3ccc(OC(F)F)cc3)CN2C(=O)[C@H](CCc2ccc(C(F)(F)F)c(F)c2)NC(=O)CN(C)C(=O)[C@H](CC2CCCCC2)N(C)C(=O)CN(C)C(=O)CN(C)C1=O` [Compound 2128] ([NMeL]I[Sar][Sar][NMeCha][Sar][hPhe(3-F,4-CF3)][Hyp](X45)[Ac5c][NMeL][NMeD]-Piperidide; lactam N-11) cannot be ordered by IC50: greater than 500 nM for the first, greater than 500 nM for the second.
